Test results: US20200009173A1, “TRIAZOLE-CONTAINING MACROLIDES AND OPHTHALMIC USES THEREFOR” (Tetard, Inc., priority 2017, published 2020)
≈ marks a conversion by molar mass, not a printed value. Like-named read-outs stand apart in the source and are kept apart here.

Key:
P. Acnes = test: MICs of solithromycin and comparator drugs against P. acnes; type: cell-based; conditions: for MIC50 / MIC90: Cutibacterium acnes
Text: EXAMPLE. The formulations described herein show overall higher potency against ocular pathogens than commercial standards. MICs (μg/ml) of Solithromycin and Comparator Drugs against P. Acnes (51 Species)

TNFα = TNFα production in LPS-stimulated PMA-differentiated U937 cells (ELISA); type: cell-based, human
Procedure: (§1) EXAMPLE. […] Cells. The human monocytic cell line U937 was obtained from the American Type Culture Collection (ATCC, Rockville, Md.). PBMCs from COPD patients were obtained from Brompton hospital and separated by AccuSPIN (Sigma-Aldrich). […] U937 cells were differentiated into adherent macrophage-like morphology by exposure to PMA (50 ng/ml) for 48 h in complete growth medium. Cell viability was assessed microscopically by trypan blue staining. Cell toxicity was determined by MTT assay as needed. This study was approved by the ethics committee of the Royal Brompton Hospitals, and all subjects gave written informed consent. Cytokine ELISA. TNFα and IL-8 concentrations in the supernatant of cell cultures were determined by sandwich ELISA according to the manufacturer's instructions (R&D Systems Europe, Abingdon, UK). Statistical analysis. The results were expressed as the mean±SEM. Comparisons of data in two groups were performed using the Student's t test or the Wilcoxon signed rank test. Multiple comparisons were made by one-way ANOVA with post hoc test (Dunnett's) as appropriate. The difference was considered significant at p<0.05. […] Anti-inflammatory effects of solithromycin in U937 cells.

MMP9 = MMP9 activity in PMA-stimulated U937 cells (gelatin zymography); type: cell-based, human
Procedure: EXAMPLE. […] Cells. The human monocytic cell line U937 was obtained from the American Type Culture Collection (ATCC, Rockville, Md.). PBMCs from COPD patients were obtained from Brompton hospital and separated by AccuSPIN (Sigma-Aldrich). […] U937 cells were differentiated into adherent macrophage-like morphology by exposure to PMA (50 ng/ml) for 48 h in complete growth medium. Cell viability was assessed microscopically by trypan blue staining. Cell toxicity was determined by MTT assay as needed. This study was approved by the ethics committee of the Royal Brompton Hospitals, and all subjects gave written informed consent. Zymography. MMP9 enzyme activity was measured by gelatin zymography. […] After electrophoresis, gels were incubated and rinsed with Novex® zymogram renaturing buffer (Invitrogen) for 30 min at room temperature. The gels were then rinsed in Novex® zymogram developing buffer (Invitrogen) for 30 min at room temperature prior to overnight incubation in the developing buffer at 37° C. After incubation, the gels were stained using a Colloidal Blue Staining Kit (Invitrogen) to visualize the zymogen bands. Statistical analysis. The results were expressed as the mean±SEM. Comparisons of data in two groups were performed using the Student's t test or the Wilcoxon signed rank test. Multiple comparisons were made by one-way ANOVA with post hoc test (Dunnett's) as appropriate. The difference was considered significant at p<0.05.

CXCL8 = CXCL8 (IL-8) production in LPS-stimulated PMA-differentiated U937 cells (ELISA); type: cell-based, human
Procedure: as §1

H. influenzae = test: MICs of solithromycin and comparator drugs, H. influenzae (30 species); type: cell-based; conditions: for MIC50 / MIC90: Haemophilus influenzae
Text: (§2) EXAMPLE. The formulations described herein show overall higher potency against ocular pathogens than commercial standards.
(§3) MICs (μg/ml) of Solithromycin and Comparator Drugs against Bacterial Species

S. epidermidis = test: MICs of solithromycin and comparator drugs, S. epidermidis (30 species); type: cell-based; conditions: for MIC50 / MIC90: Staphylococcus epidermidis
Text: as §2, §3

MSSA = test: MICs of solithromycin and comparator drugs, MSSA (31 species); type: cell-based; conditions: for MIC50 / MIC90: Staphylococcus aureus, MSSA
Text: as §2, §3

S. pneumoniae = test: MICs of solithromycin and comparator drugs, S. pneumoniae (30 species); type: cell-based; conditions: for MIC50 / MIC90: Streptococcus pneumoniae
Text: as §2, §3

MSRA = test: MICs of solithromycin and comparator drugs, MSRA (30 species); type: cell-based; conditions: for I (intermediate susceptibility) / NS (not susceptible) / S (susceptible): 30 species
Text: as §2, §3

[1] = at a higher concentration (333 μM)

SMILES: CN[C@H](CC(C)C)C(=O)N[C@H]1C(=O)N[C@@H](CC(N)=O)C(=O)N[C@H]2C(=O)N[C@H]3C(=O)N[C@H](C(=O)N[C@H](C(=O)O)c4cc(O)cc(O)c4-c4cc3ccc4O)[C@H](O)c3ccc(c(Cl)c3)Oc3cc2cc(c3O[C@@H]2O[C@H](CO)[C@@H](O)[C@H](O)[C@H]2O[C@H]2C[C@](C)(N)[C@H](O)[C@H](C)O2)Oc2ccc(cc2Cl)[C@H]1O [Vancomycin]
- MIC Range (P. Acnes; 51 species): 0.12 to 1 mg/L
- MIC50 (P. Acnes; 51 species): 1 mg/L (≈ 0.69 µM)
- MIC90 (P. Acnes; 51 species): 1 mg/L (≈ 0.69 µM)

SMILES: COCC1=C(C(=O)O)N2C(=O)[C@@H](NC(=O)/C(=N\OC)c3csc(N)n3)[C@H]2SC1 [Cefpodoxime]
- MIC Range (P. Acnes): ≤0.015 to 2 mg/L
- MIC50 (P. Acnes; 51 species): 0.5 mg/L (≈ 1.17 µM)
- MIC90 (P. Acnes; 51 species): 2 mg/L (≈ 4.68 µM)

SMILES: C[C@H]1COc2c(N3CCN(C)CC3)c(F)cc3c(=O)c(C(=O)O)cn1c23 [Levofloxacin]
- MIC Range (P. Acnes): 0.06 to 2 mg/L
- MIC50 (P. Acnes; 51 species): 1 mg/L (≈ 2.77 µM)
- MIC90 (P. Acnes; 51 species): 1 mg/L (≈ 2.77 µM)

SMILES: CC[C@H]1OC(=O)[C@H](C)[C@@H](O[C@H]2C[C@@](C)(OC)[C@@H](O)[C@H](C)O2)[C@H](C)[C@@H](O[C@@H]2O[C@H](C)C[C@H](N(C)C)[C@H]2O)[C@](C)(O)C[C@@H](C)C(=O)[C@H](C)[C@@H](O)[C@]1(C)O [erythromycin]
- effect on TNFα production (TNFα; concentration not given): did not inhibit
- effect on MMP9 activity (MMP9): no effect
- effect on IL-8 production (CXCL8; concentration not given): did not inhibit

SMILES: COc1c(N2C[C@@H]3CCCN[C@@H]3C2)c(F)cc2c(=O)c(C(=O)O)cn(C3CC3)c12 [Moxifloxacin]
- I (intermediate susceptibility) (H. influenzae): 0%
- MIC Range (H. influenzae): 0.015 to 0.06 mg/L
- NS (not susceptible) (H. influenzae): 0%
- S (susceptible) (H. influenzae): 100%
- MIC50 (H. influenzae): 0.03 mg/L (≈ 0.0747 µM)
- MIC90 (H. influenzae): 0.06 mg/L (≈ 0.149 µM)
- I (intermediate susceptibility) (S. epidermidis): 3%
- NS (not susceptible) (S. epidermidis): 13%
- S (susceptible) (S. epidermidis): 83%
- MIC50 (S. epidermidis): 0.06 mg/L (≈ 0.149 µM)
- MIC90 (S. epidermidis): 4 mg/L (≈ 9.96 µM)
- I (intermediate susceptibility) (MSSA): 0%
- MIC Range (MSSA): 0.015 to 2 mg/L
- NS (not susceptible) (MSSA): 6%
- S (susceptible) (MSSA): 94%
- MIC50 (MSSA): 0.06 mg/L (≈ 0.149 µM)
- MIC90 (MSSA): 0.12 mg/L (≈ 0.299 µM)
- I (intermediate susceptibility) (S. pneumoniae): 0%
- MIC Range (S. pneumoniae): 0.015 to 0.25 mg/L
- NS (not susceptible) (S. pneumoniae): 0%
- S (susceptible) (S. pneumoniae): 100%
- MIC50 (S. pneumoniae): 0.12 mg/L (≈ 0.299 µM)
- MIC90 (S. pneumoniae): 0.25 mg/L (≈ 0.623 µM)
- MIC50 (MSRA): 2 mg/L (≈ 4.98 µM)
- MIC90 (MSRA): 8 mg/L (≈ 19.9 µM)
- I (intermediate susceptibility) (MSRA): 3%
- NS (not susceptible) (MSRA): 87%
- S (susceptible) (MSRA): 10%

SMILES: C[C@H]1c2cccc(O)c2C(=O)C2=C(O)[C@]3(O)C(=O)C(C(N)=O)=C(O)[C@@H](N(C)C)[C@@H]3[C@@H](O)[C@@H]21 [Doxycycline]
- MIC Range (P. Acnes): ≤0.008 to 1 mg/L
- MIC50 (P. Acnes; 51 species): 0.06 mg/L (≈ 0.135 µM)
- MIC90 (P. Acnes; 51 species): 0.12 mg/L (≈ 0.27 µM)

SMILES: CC[C@H]1OC(=O)[C@H](C)[C@@H](O[C@H]2C[C@@](C)(OC)[C@@H](O)[C@H](C)O2)[C@H](C)[C@@H](O[C@@H]2O[C@H](C)C[C@H](N(C)C)[C@H]2O)[C@](C)(OC)C[C@@H](C)C(=O)[C@H](C)[C@@H](O)[C@]1(C)O [Clarithromycin, clarithromycin]
- MIC Range (P. Acnes): ≤0.015 to 0.5 mg/L
- MIC50 (P. Acnes; 51 species): ≤ 0.015 mg/L
- MIC90 (P. Acnes; 51 species): 0.25 mg/L (≈ 0.334 µM)
- IC50 (TNFα; Homo sapiens, U-937, LPS, PMA-differentiated U937 cells, read-out: IC50 on TNFα release): 426 ± 63.9 µM
- effect on TNFα production (TNFα; [1]): modest effects
- inhibitory effect on MMP9 activity, lower than solithromycin (MMP9): 10 fold
- IC50 (CXCL8; Homo sapiens, U-937, LPS, PMA-differentiated U937 cells, read-out: IC50 on CXCL8 release): 506 ± 44 µM
- effect on IL-8 production (CXCL8; [1]): modest effects

SMILES: CC(=O)NC[C@H]1CN(c2ccc(N3CCOCC3)c(F)c2)C(=O)O1 [Linezolid]
- MIC Range (P. Acnes): ≤0.03 to 0.5 mg/L
- MIC50 (P. Acnes; 51 species): 0.25 mg/L (≈ 0.741 µM)
- MIC90 (P. Acnes; 51 species): 0.5 mg/L (≈ 1.48 µM)

SMILES: CC[C@H]1OC(=O)[C@H](C)C(=O)[C@H](C)[C@@H](O[C@@H]2O[C@H](C)C[C@H](N(C)C)[C@H]2O)[C@](C)(OC)C[C@@H](C)C(=O)[C@H](C)[C@H]2N(CCCCn3cnc(-c4cccnc4)c3)C(=O)O[C@]12C [Telithromycin]
- effect on TNFα production (TNFα; at 100 μM): did not inhibit
- IC50 (MMP9; Homo sapiens, U-937): 97.9 µM
- effect on CXCL8 production (CXCL8; at 100 μM): did not inhibit

SMILES: C=CC1=C(C(=O)O)N2C(=O)[C@@H](NC(=O)/C(=N\O)c3csc(N)n3)[C@H]2SC1 [Cefdinir]
- MIC Range (P. Acnes): ≤0.015 to 0.12 mg/L
- MIC50 (P. Acnes; 51 species): 0.03 mg/L (≈ 0.0759 µM)
- MIC90 (P. Acnes; 51 species): 0.12 mg/L (≈ 0.303 µM)

SMILES: NC[C@H]1O[C@H](O[C@H]2[C@H](O)[C@@H](O[C@H]3O[C@H](CO)[C@@H](O)[C@H](N)[C@H]3O)[C@H](N)C[C@@H]2N)[C@H](N)C[C@@H]1O [Tobramycin]
- MIC Range (H. influenzae): 2 to 8 mg/L
- MIC50 (H. influenzae): 4 mg/L (≈ 8.56 µM)
- MIC90 (H. influenzae): 4 mg/L (≈ 8.56 µM)
- I (intermediate susceptibility) (S. epidermidis): 3%
- MIC Range (S. epidermidis): 0.12 to 64 mg/L
- NS (not susceptible) (S. epidermidis): 23%
- S (susceptible) (S. epidermidis): 73%
- MIC50 (S. epidermidis): 0.5 mg/L (≈ 1.07 µM)
- MIC90 (S. epidermidis): 32 mg/L (≈ 68.4 µM)
- I (intermediate susceptibility) (MSSA): 0%
- MIC Range (MSSA): 0.12 to 4 mg/L
- NS (not susceptible) (MSSA): 0%
- S (susceptible) (MSSA): 100%
- MIC50 (MSSA): 0.5 mg/L (≈ 1.07 µM)
- MIC90 (MSSA): 0.5 mg/L (≈ 1.07 µM)
- MIC Range (S. pneumoniae): 4 to 16 mg/L
- MIC50 (S. pneumoniae): 16 mg/L (≈ 34.2 µM)
- MIC90 (S. pneumoniae): 16 mg/L (≈ 34.2 µM)
- MIC50 (MSRA): 1 mg/L (≈ 2.14 µM)
- MIC90 (MSRA): > 64 mg/L
- I (intermediate susceptibility) (MSRA): 3%
- NS (not susceptible) (MSRA): 30%
- S (susceptible) (MSRA): 67%

SMILES: C=CC1=C(C(=O)O)N2C(=O)[C@@H](NC(=O)/C(=N\OCC(=O)O)c3csc(N)n3)[C@H]2SC1 [Cefixime]
- MIC Range (P. Acnes): ≤0.03 to 0.5 mg/L
- MIC50 (P. Acnes; 51 species): 0.25 mg/L (≈ 0.551 µM)
- MIC90 (P. Acnes; 51 species): 0.5 mg/L (≈ 1.1 µM)
